Laboratory results: US7390813B1, “Pyridylpiperazines and aminonicotinamides and their use as therapeutic agents” (Xenon Pharmaceuticals Inc., priority 2001, dated 2008)
Read-outs that look alike come from different tables or passages of the source.

Assays:
[1] = test system: stearoyl-CoA desaturase; test: Fatty acid composition in rats after repeated dosing; assay type: in vivo; conditions: 9 doses (2 per day), 30 mg/kg body weight, HCl salt
Excerpt: A highly preferred compound of the invention has the structure of Formula I, wherein R1 is H and R2 is isopentyl, X=C, n=2, m=1 and R3=2-trifluoromethylphenyl.

[2] = biological target: T1, stearoyl-CoA desaturase (SCD) (Mus musculus, UniProt P13516); test: SCD mouse liver microsome assay (tritiated stearoyl-CoA desaturation); assay type: biochemical; conditions: for % Remaining SCD activity compared to DMSO control, average: mouse liver microsomes 100 μg, 15 min RT preincubation, 15 min RT desaturation
T1 construct: % Remaining SCD activity compared to DMSO control in mouse liver microsome assay; from tissue; host or cells: mouse liver microsomes
T1 sequence (P13516 1-355): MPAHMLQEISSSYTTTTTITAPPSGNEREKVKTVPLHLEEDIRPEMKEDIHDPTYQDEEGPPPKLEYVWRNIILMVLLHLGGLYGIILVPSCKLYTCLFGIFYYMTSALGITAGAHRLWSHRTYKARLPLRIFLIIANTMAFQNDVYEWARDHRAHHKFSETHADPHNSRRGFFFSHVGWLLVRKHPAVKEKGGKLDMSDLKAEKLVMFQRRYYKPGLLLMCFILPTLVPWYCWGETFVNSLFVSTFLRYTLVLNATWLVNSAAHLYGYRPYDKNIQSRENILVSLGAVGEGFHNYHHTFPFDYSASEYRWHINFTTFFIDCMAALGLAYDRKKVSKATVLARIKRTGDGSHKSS
Experimental: The identification of compounds of the invention was readily accomplished using the SCD enzyme and microsomal assay procedure described in Brownlie et al, supra.
Briefly, mouse or human liver microsomes (induced for SCD1 expression and containing cytochrome b5 and cytochrome b5 reductase) and NADH are suspended in buffer with a test compound, and reaction is initiated by addition of 0.025 mM tritiated stearoyl-CoA. This ligand is tritiated at the C9 and C10 position only. The reaction is allowed to proceed for between 5 and 20 minutes at room temperature, whereupon it is halted by addition of acid. Activated charcoal is then added, mixed, and centrifuged to separate labeled substrate from labeled water. An aliquot of supernatant is than tested for radioactivity using liquid scintillation counting. This is taken as a measure of delta-9 desaturase activity.
The compounds and compositions of the invention were tested in mouse liver microsomes, 100 μg for 15 minutes at room temperature pre-incubation with the compound and 15 minutes at room temperature desaturation period. […] Identification numbers are the same as those indicated in FIGS. 1 and 2 showing the structures and characteristics of the compounds.
% Remaining SCD activity compared to DMSO control in mouse liver microsome assay at concentration of test compound indicated. Compounds tested in mouse liver microsomes, 100 μg, 15 min RT preincubation with compound, 15 min RT desaturation period, Large volume bench-top tube method.

[3] = Table 5, % remaining SCD activity at 0.1 μM, mouse microsome assay
[4] = Table 5, % remaining SCD activity at 1 μM, mouse microsome assay
[5] = Table 5, % remaining SCD activity at 10 μM, mouse microsome assay

| % Remaining SCD activity compared to DMSO control, average ([2]; 0.1 uM test compound) [%] | % Remaining SCD activity compared to DMSO control, average ([2]; 1 uM test compound) [%] | % Remaining SCD activity compared to DMSO control, average ([2]; 10 uM test compound) [%] | % Activity 0.1 μM [2, 3] [%] | % Activity 1 μM [2, 4] [%] | % Activity 10 μM [2, 5] [%] | activity at 0.1 µM [2, 3] [%] | activity at 1 µM [2, 4] [%] | activity at 10 µM [2, 5] [%] | IC50 ([2]; stated in summary text, read-out: IC50 value) [nM] | % of the activity inhibited ([2]; 10 μM concentration of the compound) [%] | IC50 ([2]; Table 5, SCD inhibition, read-out: IC50) [nM] | SMILES | changes in fatty acid composition [1] |
| --- | --- | --- | --- | --- | --- | --- | --- | --- | --- | --- | --- | --- | --- |
| 31.35 | 7.01 | 2.06 | 31 | 7 | 2.1 |  |  |  |  |  |  | CC(C)CCNC(=O)c1ccc(N2CCN(C(=O)c3cccc4ccccc34)CC2)nc1 [Compound X16] |  |
| 29.72 | 3.37 | 1.07 | 30 | 3.4 | 1.1 |  |  |  |  |  |  | O=C(NCCCc1ccccc1)c1ccc(N2CCN(C(=O)c3cc(Cl)ccc3Cl)CC2)nc1 [Compound X10] |  |
| 29.87 | 3.91 | 1.15 | 30 | 3.9 | 1.2 |  |  |  |  |  |  | O=C(NCCc1ccccc1)c1ccc(N2CCN(C(=O)c3cc(Cl)ccc3Cl)CC2)nc1 [Compound X12] |  |
| 86.33 | 32.64 | 3.41 |  |  | 3.41 |  |  |  |  |  |  | Cc1ccsc1C(=O)N1CCN(c2ccc(C(=O)NCCc3cccc(Cl)c3)cn2)CC1 [Compound X18] |  |
| 44.95 | 6.46 | 1.22 | 45 | 6.5 | 1.2 |  |  |  |  |  |  | CCCCCCNC(=O)c1ccc(N2CCN(C(=O)c3ccccc3C(F)(F)F)CC2)nc1 [Compound X15] |  |
| 25.41 | 3.67 | 1.72 | 25 | 3.7 | 1.7 |  |  |  |  |  | 37 | CCCCCNC(=O)c1ccc(N2CCN(C(=O)c3ccccc3C(F)(F)F)CC2)nc1 [Compound X11] |  |
| 44.42 | 7.77 | 1.75 | 44 | 7.8 | 1.8 |  |  |  |  |  |  | CCCCCNC(=O)c1ccc(N2CCN(C(=O)c3ccccc3Br)CC2)nc1 [Compound X13] |  |
| 38.24 | 7.44 | 1.39 | 38 | 7.4 | 1.4 |  |  |  |  |  |  | CC(C)CCNC(=O)c1ccc(N2CCN(C(=O)c3ccc(Cl)cc3Cl)CC2)nc1 [Compound X14] |  |
| 75.14 | 18.59 | 3.57 |  |  | 3.57 |  |  |  |  |  |  | CCCCNC(=O)c1ccc(N2CCN(C(=O)c3ccccc3Br)CC2)nc1 [Compound X19] |  |
| 74.82 | 33.28 | 3.94 |  |  | 3.94 |  |  |  |  |  |  | Cc1ccccc1CC(=O)N1CCN(c2ccc(C(=O)NCCC(C)C)cn2)CC1 [Compound X21] |  |
| 61.74 | 10.59 | 1.01 |  |  | 1.01 |  |  |  |  |  |  | COc1ccc(Br)c(C(=O)N2CCN(c3ccc(C(=O)NCCCc4ccccc4)cn3)CC2)c1 [Compound X17] |  |

The next lines start with the compound.

| SMILES | % Remaining SCD activity compared to DMSO control, average ([2]; 0.1 uM test compound) [%] | % Remaining SCD activity compared to DMSO control, average ([2]; 1 uM test compound) [%] | % Remaining SCD activity compared to DMSO control, average ([2]; 10 uM test compound) [%] | % Activity 0.1 μM [2, 3] [%] | % Activity 1 μM [2, 4] [%] | % Activity 10 μM [2, 5] [%] | activity at 0.1 µM [2, 3] [%] | activity at 1 µM [2, 4] [%] | activity at 10 µM [2, 5] [%] | IC50 ([2]; stated in summary text, read-out: IC50 value) [nM] | % of the activity inhibited ([2]; 10 μM concentration of the compound) [%] | IC50 ([2]; Table 5, SCD inhibition, read-out: IC50) [nM] | changes in fatty acid composition [1] |
| --- | --- | --- | --- | --- | --- | --- | --- | --- | --- | --- | --- | --- | --- |
| CC(C)CCNC(=O)c1ccc(N2CCN(C(=O)c3ccccc3C(F)(F)F)CC2)nc1 |  |  |  |  |  |  |  |  |  |  |  |  | changes in fatty acid composition consistent with inhibition of SCD activity |
| O=C(NCCc1ccccc1)c1ccc(N2CCN(C(=O)c3ccccc3Br)CC2)nc1 [Compound X04] | 36.54 | 5.48 | 1.29 | 37 | 5.5 | 1.3 |  |  |  |  |  |  |  |
| CC(C)CCNC(=O)c1ccc(N2CCN(C(=O)c3ccccc3C(F)(F)F)CC2)nc1 [Compound X05] | 17.09 | 3.05 | 0.81 |  |  |  | 17 | 3.1 | 0.8 | 32 |  |  |  |
| CCCCNC(=O)c1ccc(N2CCN(C(=O)c3ccccc3C(F)(F)F)CC2)nc1 [Compound X09] | 63.58 | 14.80 | 2.69 | 64 | 15 | 2.7 |  |  |  |  |  |  |  |
| O=C(NCCCc1ccccc1)c1ccc(N2CCN(C(=O)c3ccccc3C(F)(F)F)CC2)nc1 [Compound X03] | 26.04 | 2.17 | 0.72 | 26 | 2.2 | 0.7 |  |  |  |  | > 99 |  |  |
| CC(C)CCNC(=O)c1ccc(N2CCN(C(=O)c3ccccc3Br)CC2)nc1 [Compound X02] | 25.68 | 5.49 | 1.27 | 26 | 5.5 | 1.3 |  |  |  |  |  |  |  |
| CCCCCNC(=O)c1ccc(N2CCN(C(=O)c3cc(Cl)ccc3Cl)CC2)nc1 [Compound X06] | 38.00 | 5.38 | 1.97 | 38 | 5.4 | 2 |  |  |  |  |  |  |  |
| O=C(NCCc1cccc(Cl)c1)c1ccc(N2CCN(C(=O)c3ccccc3C(F)(F)F)CC2)nc1 [Compound X01] | 57.77 | 9.05 | 1.42 | 58 | 9.1 | 1.4 |  |  |  |  |  |  |  |
